Assay results: publication PMC9738107, “Targeting of the ELR+CXCL/CXCR1/2 Pathway Is a Relevant Strategy for the Treatment of Paediatric Medulloblastomas” (Cells, 2022)

Experiments:
[1] = test system: Daoy, ONS-76, HD-MB03, and D341Med wild-type cells; assay: Cell proliferation assay (cell counting); assay type: cell-based, human; settings: 1 µM C29, pre-incubation prior to cell seeding, all tested cell lines
Description: To confirm the efficacy of C29 on various parameters of cancer cell aggressiveness, we first performed cell proliferation assays at longer time points.
Figure 4 C29 reduces proliferation, migration, and invasion of naïve MB cells. (A) Proliferation of Daoy, ONS-76, HD-MB03, and D341Med wild-type cells after treatment with 1 μM C29 or the control (DMSO), n = 3. (B) Clonogenic assay on Daoy (n = 4), ONS-76 (n = 3) and HD -MB03 (n = 5) cells after treatment with control (DMSO) or C29 (1 μM or 2.5 μM). Scale = 500 μm. (C) Cell migration through the Boyden chamber of Daoy and ONS-76 cells specifically attracted by 200 ng/mL CXCL8. Results are expressed as percentage of control (DMSO) (n = 3). […] Results are expressed as percentage of day 0, n = 4. […]
(§1) 1500 Daoy, ONS ‐76, HD ‐MB03 or D341 Med cells were sown in triplicate in plates with six wells and the cells were counted daily for 8 days using a Coulter counter (Ville‐ pinte). The relative number of cells (compared to day 1) was determined daily. […]
Y = Y0 * exp(k * X) (Y= Cell number at day X; Y0= Cell number at day 0 (graphically calculated); X= Day following cell plating (cells plated at X0=0); k= Exponential growth constant rate. Doubling times were compared. […]
were seeded in 6‐well plates. […] Cell death was detected by PE chan‐ nel using FACS Cytoflex (Beckman) immediately after labelling the cells with 1ug/ml pro‐ pidium iodide (Miltenyi Biotec). […]

DR1 and DR2 cells = assay: CXCL8-dependent migration in Boyden chamber; assay type: cell-based, human; settings: DR1 and DR2, 1 µM, 200 ng/mL CXCL8
Description: Figure 8 C29 is efficient on radioresistant MB cell lines. (A) Cell death after 48 h of treatment with control (DMSO, CT) or C29 1, 2.5, or 5 µM on radiation-resistant cells (RR) and normal cells (N), n = 3. Statistics were performed using the one-way method ANOVA. * p < 0.05, ** p < 0.01, *** p < 0.001. For this figure, DR1 = D1, DR2 = D2, HR1 = H1, HR2 = H2, and C8D1A = C8. (B) Proliferation of DR1/DR2 (A) and HR1/HR2 (B) radio-resistant cells after 1 µM C29 treatment or control (DMSO), n = 3. (C) Clonogenic assay on DR1, DR2 (n = 3) and HR1, HR2 (n = 3) cells after treatment with control (DMSO) or C29 (1 µM or 2.5 µM). […] Results are expressed as percentage of control (n = 3). […]
as §1
Y = Y0 * exp(k * X) (Y= Cell number at day X; Y0= Cell number at day 0 (graphically calculated); X= Day following cell plating (cells plated at X0=0); k= Exponential growth constant rate. Doubling times were compared.
150 Daoy/DR1/DR2/ ONS ‐ 76 and 300 HD ‐ MB03/HR1/HR2 cells were seeded in trip‐ licate in 6‐well plates in the presence or absence of treatment (1 or 2∙5μM MCK140 or DMSO as control). […] The number of clones was quantified using ImageJ software. […]

## O=C(Nc1cccc(Cl)c1)Nc1nc2ccc([N+](=O)[O-])cc2s1 [C29, 1-(3-chlorophenyl)-3-(6-nitrobenzo[d]thiazol-2-yl) urea]
[1]
  Proliferation: completely inhibited proliferation
DR1 and DR2 cells
  CXCL8-dependent migration: significantly inhibited
